{"source": "patent US10828316B2", "about": "“Method of treating bacterial infections” (priority 2016, dated 2020)", "key": {"[1]": {"test_system": "E. coli EN0138", "assay": "MIC", "type": "cell-based", "settings": "in FdUrd+trimethoprim+uridine combination"}, "[2]": {"test_system": "E. coli EN0139", "assay": "MIC", "type": "cell-based", "settings": "in FdUrd+trimethoprim+uridine combination"}, "[3]": {"test_system": "K. pneumoniae EN0249", "assay": "MIC", "type": "cell-based", "settings": "in FdUrd+trimethoprim+uridine combination"}, "[4]": {"test_system": "M. luteus EN0455", "assay": "MIC", "type": "cell-based, Micrococcus luteus", "settings": "in FdUrd+trimethoprim+uridine combination"}, "[5]": {"test_system": "A. pittii or A. nosocomialis EN0180", "assay": "MIC", "type": "cell-based, Acinetobacter pittii or nosocomialis", "settings": "in FdUrd+trimethoprim+uridine combination"}, "[6]": {"test_system": "P. aeruginosa EN0460", "assay": "MIC", "type": "cell-based, Pseudomonas aeruginosa", "settings": "in FdUrd+trimethoprim+uridine combination"}, "[7]": {"test_system": "K. pneumoniae EN0262", "assay": "MIC", "type": "cell-based", "settings": "in FdUrd+trimethoprim+uridine combination"}, "[8]": {"test_system": "P. aeruginosa EN004", "assay": "MIC", "type": "cell-based, Pseudomonas aeruginosa", "settings": "in FdUrd+trimethoprim+uridine combination"}, "[9]": {"test_system": "S. marescens EN0454", "assay": "MIC", "type": "cell-based, Serratia marescens", "settings": "in FdUrd+trimethoprim+uridine combination"}, "[10]": {"test_system": "E. coli EN0136", "assay": "MIC", "type": "cell-based", "settings": "in FdUrd+trimethoprim+uridine combination"}, "[11]": {"test_system": "E. coli EN0135", "assay": "MIC", "type": "cell-based", "settings": "in FdUrd+trimethoprim+uridine combination"}, "[12]": {"test_system": "P. aeruginosa EN014", "assay": "MIC", "type": "cell-based, Pseudomonas aeruginosa", "settings": "in FdUrd+trimethoprim+uridine combination"}, "[13]": {"test_system": "E. coli EN0137", "assay": "MIC", "type": "cell-based", "settings": "in FdUrd+trimethoprim+uridine combination"}, "[14]": {"test_system": "K. pneumoniae EN0142", "assay": "MIC", "type": "cell-based", "settings": "in FdUrd+trimethoprim+uridine combination"}, "[15]": {"test_system": "P. mirabilis EN0457", "assay": "MIC", "type": "cell-based, Proteus mirabilis", "settings": "in FdUrd+trimethoprim+uridine combination"}, "[16]": {"test_system": "A. baumannii EN007", "assay": "MIC", "type": "cell-based, Acinetobacter baumannii", "settings": "in FdUrd+trimethoprim+uridine combination"}, "[17]": {"test_system": "A. baumannii EN016", "assay": "MIC", "type": "cell-based, Acinetobacter baumannii", "settings": "in FdUrd+trimethoprim+uridine combination"}, "[18]": {"test_system": "Citrobacter sp. EN0465", "assay": "MIC", "type": "cell-based", "settings": "in FdUrd+trimethoprim+uridine combination"}, "[19]": {"test_system": "K. pneumoniae EN0140", "assay": "MIC", "type": "cell-based", "settings": "in FdUrd+trimethoprim+uridine combination"}, "[20]": {"test_system": "P. aeruginosa EN0422", "assay": "MIC", "type": "cell-based, Pseudomonas aeruginosa", "settings": "in FdUrd+trimethoprim+uridine combination"}, "[21]": {"test_system": "P. aeruginosa EN005", "assay": "MIC", "type": "cell-based, Pseudomonas aeruginosa", "settings": "in FdUrd+trimethoprim+uridine combination"}, "[22]": {"test_system": "E. coli EN0134", "assay": "MIC", "type": "cell-based", "settings": "in FdUrd+trimethoprim+uridine combination"}, "[23]": {"test_system": "K. pneumoniae EN0145", "assay": "MIC", "type": "cell-based", "settings": "in FdUrd+trimethoprim+uridine combination"}, "[24]": {"test_system": "E. coli"}, "[25]": {"test_system": "S. aureus strain no 13", "assay": "MIC", "settings": "Staphylococcus aureus, NO13, read-out: MIC of trimethoprim only"}, "[26]": {"test_system": "E. coli strain no 2", "assay": "MIC", "settings": "Escherichia coli"}}, "note": "Like-named read-outs stand apart in the source and are kept apart here.", "data": [{"smiles": "O=c1[nH]c(=O)n([C@H]2C[C@H](O)[C@@H](CO)O2)cc1F", "note": "[FdUrd]", "values": [{"measurement": "MIC", "setting": "[1]", "value": 0.25, "unit": "µg/mL"}, {"measurement": "MIC", "setting": "[2]", "value": 0.5, "unit": "µg/mL"}, {"measurement": "MIC", "setting": "[3]", "value": ">4", "unit": "µg/mL"}, {"measurement": "MIC", "setting": "[4]", "value": 2, "unit": "µg/mL"}, {"measurement": "MIC", "setting": "[5]", "value": 4, "unit": "µg/mL"}, {"measurement": "MIC", "setting": "[6]", "value": ">4", "unit": "µg/mL"}, {"measurement": "MIC", "setting": "[7]", "value": 2, "unit": "µg/mL"}, {"measurement": "MIC", "setting": "[8]", "value": ">4", "unit": "µg/mL"}, {"measurement": "MIC", "setting": "[9]", "value": ">4", "unit": "µg/mL"}, {"measurement": "MIC", "setting": "[10]", "value": 1, "unit": "µg/mL"}, {"measurement": "MIC", "setting": "[11]", "value": 0.25, "unit": "µg/mL"}, {"measurement": "MIC", "setting": "[12]", "value": ">4", "unit": "µg/mL"}, {"measurement": "MIC", "setting": "[13]", "value": ">4", "unit": "µg/mL"}, {"measurement": "MIC", "setting": "[14]", "value": 0.125, "unit": "µg/mL"}, {"measurement": "MIC", "setting": "[15]", "value": 1, "unit": "µg/mL"}, {"measurement": "MIC", "setting": "[16]", "value": ">4", "unit": "µg/mL"}, {"measurement": "MIC", "setting": "[17]", "value": 4, "unit": "µg/mL"}, {"measurement": "MIC", "setting": "[18]", "value": ">4", "unit": "µg/mL"}, {"measurement": "MIC", "setting": "[19]", "value": ">4", "unit": "µg/mL"}, {"measurement": "MIC", "setting": "[20]", "value": ">4", "unit": "µg/mL"}, {"measurement": "MIC", "setting": "[21]", "value": 0.25, "unit": "µg/mL"}, {"measurement": "MIC", "setting": "[22]", "value": ">4", "unit": "µg/mL"}, {"measurement": "MIC", "setting": "[23]", "value": ">4", "unit": "µg/mL"}]}, {"smiles": "COc1cc(Cc2cnc(N)nc2N)cc(OC)c1OC", "note": "[Trimethoprim, trimethoprim]", "values": [{"measurement": "score at sampling", "setting": "[24]; Trimethoprim 30 mg/kg, single mice", "value": 1}, {"measurement": "inhibition in mice infected with E. coli", "setting": "[24]; murine peritonitis model", "value": "slight inhibition"}, {"measurement": "MIC", "setting": "[25]", "value": "< 32", "unit": "µg/mL"}, {"measurement": "MIC", "setting": "[26]; NO2, E. coli strain 2, 5 uM thymidine, uridine 0 μg/ml", "value": "5 to 10", "unit": "µg/mL"}, {"measurement": "MIC", "setting": "[26]; NO2, E. coli strain 2, 5 uM thymidine, uridine 10 μg/ml", "value": "2.5 to 5", "unit": "µg/mL"}, {"measurement": "MIC", "setting": "[26]; NO2, E. coli strain 2, 5 uM thymidine, uridine 100 μg/ml", "value": "2.5 to 5", "unit": "µg/mL"}, {"measurement": "MIC", "setting": "[26]; NO2, read-out: MIC of trimethoprim only, E. coli strain no 2", "value": "8 to 16", "unit": "µg/mL"}]}]}
